Reference: patent US4352807A, “Hexahydro-trans-pyridoindole neuroleptic agents” (Pfizer Inc., priority 1980, dated 1982)
Where two headings read alike, the source gives them in different places.

Columns and labels:
[1] = system: amphetamine-induced symptoms (characteristic amphetamine behaviour of cage movement); test: Antagonism of amphetamine symptoms in rats (rat amphetamine test); format: in vivo; conditions: block of cage movement in 50% of rats; for ED50: Rattus norvegicus, sc; for ED50, rat amphetamine test, 1 hr.: 60 min; for ED50, rat amphetamine test, 5 hr.: 300 min; for ED50, rat amphetamine test, 24 hr.: 1440 min
Source text: The tranquilizing activity of the derivatives may be determined using the well known standard procedure-antagonism of amphetamine-induced symptoms in rats.
The effects of the above examples of Derivatives on prominent amphetamine-induced symptoms were studied in rats by a rating scale modeled after the one reported by Quinton and Halliwell, and Weissman. Rats were placed individually in a covered plastic cage measuring approximately 26 cm.×42 cm×16 cm. After a brief period of acclimation of the cage, the rats in each group, commonly, five animals per dose level, were treated subcutaneously (s.c.) with a selected dose of the Derivative to be tested. They were then treated 1, 5 and 24 hrs. later with d-amphetamine sulfate, 5 mg./kg. intraperitoneally (i.p.). […] The time of rating chosen coincides with the peak action of amphetamine which is 60-80 min. after dosing.

dopamine receptors = target: T1, dopamine receptors (Rattus norvegicus, UniProt P61169); test: Inhibition of ^3 H-spiroperidol binding to dopamine receptors (rat corpus striatum homogenate); set-up: species or system rat (Sprague-Dawley CD); conditions: 0.5 nM ^3 H-spiroperidol, 10 min at 37° C.
T1 construct: brains were immediately dissected on an ice-cold glass plate to remove corpus striatum; from tissue; host or cells: rat corpus striatum, washed homogenate (Sprague-Dawley CD males)
Protocol: The procedure was as follows:
Rats (Sprague-Dawley CD males, 250-300 g., Charles River Laboratories, Wilmington, Mass.) were decapitated, and brains were immediately dissected on an ice-cold glass plate to remove corpus striatum (~100 mg./brain). Tissue was homogenized in 40 volumes (1 g.+40 ml). of ice-cold 50 mM. […] The tissue suspension was placed in a 37° C. water bath for 5 minutes to insure inactivation of tissue monoamine oxidase and then kept on ice until used. The incubation mixture consisted of 0.02 ml. inhibitor solution (the desired concentration of the derivative to be tested in stock solution). […] Tubes were incubated in sequence for 10 minutes at 37° C. in groups of three, after which 0.9 ml. of each incubation tube was filtered through Whatman FG/B filters using a high vacuum pump. Each filter was placed in a scintillation vial, 10 ml. of liquid scintillation fluor was added and each vial was vigorously vortexed for about five seconds. Samples were allowed to stand over night, until filters were translucent, vortexed again and then counted 1.0 minute for radioactivity. Binding was calculated as femtomales (10^-15 moles) of ^3 H-spiroperidol bound per mg. protein. Controls (vehicle or 1 butaclamol, 10^-7 M; 4.4 mg. dissolved in 200 μl. glacial acetic acid, then diluted to 2.0 ml. with DDW for 10^-4 M stock solution, kept refrigerated), blank (d-butaclamol, 10^-7 M; (4.4 mg./2 ml.) for 10^-4 M stock solution, same protocol as 1-butaclamol); and inhibitor solutions were run in triplicate. […] Insoluble drugs were dissolved in 50% ethanol (1% ethanol incubation).
**DDW=Double Distilled Water.

[2] = 1 h, s.c., d-amphetamine sulfate 5 mg/kg i.p. 1 hr after treatment, read-out: ED50, rat amphetamine test, 1 hr.
[3] = 5 h, read-out: ED50, rat amphetamine test, 5 hr., s.c., d-amphetamine sulfate 5 mg/kg i.p. 5 hr after treatment
[4] = 24 h, s.c., d-amphetamine sulfate 5 mg/kg i.p. 24 hr after treatment, read-out: ED50, rat amphetamine test, 24 hr.
[5] = s.c., d-amphetamine sulfate 5 mg/kg i.p. 1 hr after treatment
[6] = s.c., d-amphetamine sulfate 5 mg/kg i.p. 5 hr after treatment
[7] = s.c., d-amphetamine sulfate 5 mg/kg i.p. 24 hr after treatment

T1 sequence (P61169 whole entry): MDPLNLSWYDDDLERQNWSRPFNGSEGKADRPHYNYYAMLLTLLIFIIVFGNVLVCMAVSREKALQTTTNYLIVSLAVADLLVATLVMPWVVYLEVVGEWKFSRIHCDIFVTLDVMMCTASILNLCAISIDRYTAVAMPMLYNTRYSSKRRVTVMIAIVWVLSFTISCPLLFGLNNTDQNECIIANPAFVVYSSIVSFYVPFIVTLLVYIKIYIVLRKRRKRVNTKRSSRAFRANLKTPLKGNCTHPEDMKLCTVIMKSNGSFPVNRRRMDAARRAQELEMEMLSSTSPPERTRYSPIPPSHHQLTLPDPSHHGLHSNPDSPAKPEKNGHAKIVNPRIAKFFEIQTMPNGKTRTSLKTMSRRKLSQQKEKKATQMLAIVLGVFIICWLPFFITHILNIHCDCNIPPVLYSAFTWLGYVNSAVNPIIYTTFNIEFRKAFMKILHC

Q: With `NCCCCN1CC[C@H]2[C@H](C1)c1cc(F)ccc1N2c1ccc(F)cc1` (relative stereo) [Example 2, (±)2-(1'-amino-n-but-4'-yl)-5-(p-fluorophenyl)-8-fluoro-2,3,4,4a,5,9b-hexahydro-trans-4a,9b-1(H)-pyrido[4,3-b]indole] as the compound, how does the ED50 [1, 2] read?
A: 17.7 mg/kg

Q: And the ED50 [1, 3]?
A: 4.5 to 11.5 mg/kg

Q: What about the ED50 [1, 4] of the same compound?
A: 17.7 mg/kg

Q: And the IC50 (dopamine receptors)?
A: 24 nM

Q: With `CC(=O)NCCCCN1CC[C@H]2[C@H](C1)c1cc(F)ccc1N2c1ccc(F)cc1` (relative stereo) [Example 3, (±)2-(N-acetyl-1'-amino-n-but-4'-yl)-5-(p-fluorophenyl)-8-fluoro-2,3,4,4a,5,9b-hexahydro-trans-4a,9b-1(H)-pyrido[4,3-b]indole] as the compound, how does the ED50 [1, 2] read?
A: 0.02 mg/kg

Q: And the ED50 [1, 3]?
A: 0.006 mg/kg

Q: And the ED50 [1, 4]?
A: 0.66 mg/kg

Q: What about the IC50 (dopamine receptors) of the same compound?
A: 13 nM

Q: Which ED50 [1, 2] does the source give for `CC(=O)NCCN1CC[C@H]2[C@H](C1)c1cc(F)ccc1N2c1ccc(F)cc1` (relative stereo) [Example 6, 2-(N-acetyl-2-aminoethyl)-5-(p-fluorophenyl)-8-fluoro-2,3,4,4a,5,9b-hexahydro-trans-4a,9b-1(H)-pyrido[4,3-b]indole] here?
A: 0.11 mg/kg

Q: What about the ED50 [1, 3] of the same compound?
A: 0.36 mg/kg

Q: And the ED50 [1, 4]?
A: 1 mg/kg

Q: And the IC50 (dopamine receptors)?
A: 16 nM

Q: For `CC(=O)NCCCN1CC[C@H]2[C@H](C1)c1cc(F)ccc1N2c1ccc(F)cc1` (relative stereo) [Example 7, (±) 2-(N--acetyl-1'-amino-n-prop-3-yl)], which IC50 (dopamine receptors) is on record?
A: 10 nM

Q: How did the ED50 [1, 2] turn out when `CC(=O)NCCCCCN1CC[C@H]2[C@H](C1)c1cc(F)ccc1N2c1ccc(F)cc1` (relative stereo) [Example 8, (±) 2-(N--acetyl-1'-amine-n-pent-5'-yl)] was run?
A: 0.01 mg/kg

Q: And the ED50 [1, 3]?
A: 0.004 mg/kg

Q: What about the ED50 [1, 4] of the same compound?
A: 0.4 mg/kg

Q: And the IC50 (dopamine receptors)?
A: 9 nM

Q: For `CC(=O)NCCCCCCN1CC[C@H]2[C@H](C1)c1cc(F)ccc1N2c1ccc(F)cc1` (relative stereo) [Example 9, (±) 2-(N--acetyl-1'-amino-n-hex-6'-yl)], which ED50 [1, 2] is on record?
A: 0.023 mg/kg

Q: What about the ED50 [1, 3] of the same compound?
A: 0.002 mg/kg

Q: And the ED50 [1, 4]?
A: 0.032 mg/kg

Q: What about the IC50 (dopamine receptors) of the same compound?
A: 8 nM

Q: With `CC(=O)NCCCCCCCN1CC[C@H]2[C@H](C1)c1cc(F)ccc1N2c1ccc(F)cc1` (relative stereo) [Example 10, (±) 2-(N--acetyl-1'-amino-n-hept-7'-yl)] as the compound, how does the ED50 [1, 2] read?
A: 0.09 mg/kg

Q: And the ED50 [1, 3]?
A: 0.018 mg/kg

Q: What about the ED50 [1, 4] of the same compound?
A: 0.05 mg/kg

Q: And the IC50 (dopamine receptors)?
A: 9 nM

Q: Which ED50 [1, 2] does the source give for `O=C(NCCCCN1CC[C@H]2[C@H](C1)c1cc(F)ccc1N2c1ccc(F)cc1)c1ccccc1` (relative stereo) [Example 13, (±) 2-(N--benzoyl-1'-amino-n-but-4'-yl)] here?
A: 0.1 to 0.3 mg/kg

Q: And the ED50 [1, 3]?
A: 0.01 to 0.03 mg/kg

Q: What about the ED50 [1, 4] of the same compound?
A: 0.3 to 1 mg/kg

Q: Which results are given for `CCOC(=O)NCCCCN1CC[C@H]2[C@H](C1)c1cc(F)ccc1N2c1ccc(F)cc1` (relative stereo) [Example 14, (±) 2-(N--ethoxycarbonyl-1'-amino-n-but-4'-yl)]?
A: ED50 [1, 2]: 0.05 mg/kg; ED50 [1, 3]: 0.02 mg/kg; ED50 [1, 4]: 0.3 mg/kg; IC50 (dopamine receptors): 11 nM

Q: `COc1ccccc1C(=O)NCCCCN1CC[C@H]2[C@H](C1)c1cc(F)ccc1N2c1ccc(F)cc1` (relative stereo) [Example 15, (±) 2-[N--(o-methoxybenzoyl)-1'-amino-n-but-4'-yl]] was tested. Which ED50 [1, 2] did it give?
A: 0.45 mg/kg

Q: What about the ED50 [1, 3] of the same compound?
A: 0.18 mg/kg

Q: What about the ED50 [1, 4] of the same compound?
A: 1 mg/kg

Q: And the IC50 (dopamine receptors)?
A: 14 nM

Q: What does the source list for `Cc1ccc(S(=O)(=O)NCCCCN2CC[C@H]3[C@H](C2)c2cc(F)ccc2N3c2ccc(F)cc2)cc1` (relative stereo) [Example 16, (±) 2-(N--p-toluenesulfonyl-1'-amino-n-but-4'-yl)]?
A: ED50 [1, 2]: 1 mg/kg; ED50 [1, 3]: 1 mg/kg

Q: Which IC50 (dopamine receptors) does the source give for `CC(=O)NCCCCN1CC[C@H]2[C@H](C1)c1ccccc1N2c1ccccc1` (relative stereo) [Example 17, (±) 2-(N--acetyl-1'-amino-n-but-4'-yl)-5-phenyl-2,3,4,-4a,9b-hexahydro-trans-4a,9b-1(H)-pyrido[4,3-b]indole] here?
A: 16 nM

Q: How did the “ED50, rat amphetamine test, 1 hr.” value [1, 5] turn out when `CC(=O)NCCCCN1CCC2C(C1)c1cc(F)ccc1N2c1ccc(F)cc1` (single isomer, unassigned; (+)) [Example 11, (+) enantiomer of 2-(N--acetyl-1-'-amino-n-but-4-yl)] was run?
A: 0.02 mg/kg

Q: And the “ED50, rat amphetamine test, 5 hr.” value [1, 6]?
A: 0.006 mg/kg

Q: And the “ED50, rat amphetamine test, 24 hr.” value [1, 7]?
A: 0.28 mg/kg

Q: And the IC50 (dopamine receptors)?
A: 4.7 nM

Q: Which “ED50, rat amphetamine test, 1 hr.” value [1, 5] does the source give for `CC(=O)NCCCCN1CCC2C(C1)c1cc(F)ccc1N2c1ccc(F)cc1` (single isomer, unassigned; (-)) [Example 12, (-) enantiomer of 2-(N--acetyl-1'-amino-n-but-4'-yl)] here?
A: 1 mg/kg

Q: And the “ED50, rat amphetamine test, 5 hr.” value [1, 6]?
A: 1 mg/kg

Q: And the “ED50, rat amphetamine test, 24 hr.” value [1, 7]?
A: 1 mg/kg

Q: What about the IC50 (dopamine receptors) of the same compound?
A: 1000 nM
